Test results published in PubChem BioAssay (NCI).
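Where inhibition never reached the appropriate level, the endpoint shown equals the highest concentration tested. Otherwise, values were interpolated linearly from a five-concentration, 48-hour dose response in 96-well plates. GI50 marks 50% less growth. TGI marks complete inhibition of growth.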

Key:
Assay in all cases: DTP human tumour cell line panel, 48 h
SNB-19 CNS = system: SNB-19 CNS
RPMI-8226 leukemia = system: RPMI-8226 leukemia
COLO 205 colon = system: COLO 205 colon
EKVX NSCLC = system: EKVX NSCLC
HCT-15 colon = system: HCT-15 colon
HS 578T breast = system: HS 578T breast
NCI/ADR-RES ovarian = system: NCI/ADR-RES ovarian
HOP-92 NSCLC = system: HOP-92 NSCLC
MDA-MB-435 = system: MDA-MB-435
DU-145 prostate = system: DU-145 prostate

Row | Compound | TGI (SNB-19 CNS) | TGI (RPMI-8226 leukemia) | TGI (COLO 205 colon) | TGI (EKVX NSCLC) | TGI (HCT-15 colon) | TGI (HS 578T breast) | TGI (NCI/ADR-RES ovarian) | TGI (HOP-92 NSCLC) | TGI (MDA-MB-435) | TGI (DU-145 prostate) | GI50 (RPMI-8226 leukemia)
1 | COC(=O)c1cc(C)ccc1CC(Cc1cccc(C)c1)C(=O)OC (stereo unspecified) | > 100 µM | > 100 µM | > 100 µM | > 100 µM | > 100 µM | > 100 µM | > 100 µM | > 100 µM | > 100 µM | > 100 µM | 
2 | CCOC(=O)/C(=C\NCC(O)c1ccccc1)c1nc2ccccc2[nH]1 (stereo unspecified) | > 100 µM | 29.4 µM | 49.8 µM | 91.5 µM | 74.3 µM | 39.5 µM | 67.9 µM | 65.5 µM | 51.8 µM | > 100 µM | 
3 | CC(C)Oc1c(-c2c(OC(C)C)c(=O)c2=O)c(=O)c1=O | > 100 µM | > 71.8 µM | > 51.9 µM | > 64.9 µM | > 100 µM | > 67 µM | 26.8 µM | > 100 µM | > 41.6 µM | > 100 µM | 
4 | CSc1nc(NC2CCCC2)c2cc[nH]c2n1 | > 100 µM | > 100 µM | > 100 µM | > 100 µM | > 100 µM | > 100 µM | > 100 µM | > 100 µM | > 100 µM | > 100 µM | 
5 | Cn1ccnc1S/C(=C\C=C(C#N)C#N)c1ccc(Cl)cc1 | 10.8 µM | 53.6 µM | > 35.6 µM | 13.1 µM | 9.11 µM | 13.6 µM | 7.85 µM | 4.18 µM | 2.45 µM | 10.9 µM | 19.2 µM
6 | CC(=O)NNc1nc(C)c(C(/C=C/c2ccc3c(c2)OCO3)=N/Nc2ccccc2)s1 | > 100 µM | > 100 µM | > 100 µM | > 100 µM | > 100 µM | > 100 µM | > 100 µM | > 100 µM | > 100 µM | > 100 µM | 
7 | COc1cc2c(cc1C[N+](C)(C)CSc1ccccc1)-c1ccccc1CC2 | 10.7 µM | 17.2 µM | 5.73 µM | 23.7 µM | 30.2 µM | 19.3 µM | > 100 µM | 26.2 µM | 12.5 µM | 21.2 µM | 
8 | CCC1C(=O)C[C@H]2[C@@H]3C(O)CC4=CC(=O)CC[C@]4(C)[C@H]3CC[C@]12C (stereo partly specified) | > 50 µM | > 50 µM | > 50 µM | > 50 µM | > 50 µM | > 50 µM | > 50 µM | > 50 µM | > 50 µM | > 50 µM | 
9 | Cc1c(-c2c(C)c3ccccc3n2S(=O)(=O)c2ccccc2)n(S(=O)(=O)c2ccccc2)c2ccccc12 | > 100 µM | > 100 µM | > 100 µM | > 100 µM | > 100 µM | > 100 µM | > 100 µM | > 100 µM | > 100 µM | > 33.5 µM | 
10 | Cc1cnoc1NC1=CC(=O)C(=O)c2ccccc21 | 73.5 µM | 50.3 µM | > 100 µM | > 100 µM | > 100 µM | > 100 µM | 70.9 µM | > 100 µM | 2.64 µM | 61.2 µM | 
11 | Cn1ccnc1Sc1ccc(/C=N/NC(=O)c2ccccc2O)cc1[N+](=O)[O-] | > 100 µM | 41.2 µM | 56.8 µM | > 100 µM | > 100 µM | > 100 µM | > 100 µM | > 100 µM | > 100 µM | > 100 µM | 
12 | COc1cccc(N2C(=O)C3c4[nH]c5ccccc5c4C4c5ccccc5CCC4C3C2=O)c1 (stereo unspecified) | > 10 µM | > 10 µM | > 10 µM | > 10 µM | > 10 µM | 7.06 µM | > 10 µM | > 10 µM | > 10 µM | > 10 µM | 
13 | Brc1ccc(N=NN2CCCCC2)cc1 | > 100 µM | 30.9 µM | > 100 µM | > 100 µM | > 100 µM | > 100 µM | > 100 µM | > 100 µM | > 100 µM | > 100 µM | 
14 | Cc1nc2ccc(S(=O)(=O)Nc3ccc(Cl)cc3)cc2c(=O)n1NC(=O)CNc1ccc(Cl)cc1 | > 100 µM | > 100 µM | > 100 µM | > 100 µM | > 100 µM | > 100 µM | > 100 µM | > 100 µM | > 100 µM | > 100 µM | 
15 | COc1cc2c3cc1Oc1c(O)c(OC)cc4c1[C@H](Cc1ccc(cc1)Oc1cc(ccc1O)C[C@H]3N(C)CC2)N(C)CC4 | 55.1 µM | 20 µM | 28.5 µM | 48.1 µM | 59.5 µM | 64.9 µM | 78.4 µM | 39.4 µM | 27.1 µM | 37.5 µM | 
16 | COc1ccc2nc3cc(Cl)ccc3c(NCCCCCC(=O)NC(COc3cnc4c(ccc5cccnc54)c3)COc3cnc4c(ccc5cccnc54)c3)c2c1 | > 100 µM | 20.2 µM | 10.7 µM | > 100 µM | > 100 µM | > 100 µM | > 100 µM | > 100 µM | > 100 µM | 23.4 µM | 

Row | Compound | TGI (SNB-19 CNS) | TGI (RPMI-8226 leukemia) | TGI (COLO 205 colon) | TGI (EKVX NSCLC) | TGI (HCT-15 colon) | TGI (HS 578T breast) | TGI (NCI/ADR-RES ovarian) | TGI (HOP-92 NSCLC) | TGI (MDA-MB-435) | TGI (DU-145 prostate) | GI50 (RPMI-8226 leukemia)
17 | Cc1cn(C2CC(n3cc(Cn4cc(F)c(=O)[nH]c4=O)nn3)C(CO)O2)c(=O)[nH]c1=O (stereo unspecified) | > 100 µM | > 100 µM | > 100 µM | > 100 µM | > 100 µM | > 100 µM | > 100 µM | > 100 µM | > 100 µM | > 100 µM | 
18 | CC(C)CCCC(C)[C@H]1CCC2[C@@H]3CCC4Cc5nc6c(nc5C[C@]4(C)C3CC[C@@]21C)CC1CC[C@@H]2C(C[C@@H](O)[C@@]3(C)C2C[C@@H]2OC4(CCC(C)CO4)C(C)[C@@H]23)[C@@]1(C)C6 (stereo partly specified) | > 100 µM | > 100 µM | > 100 µM | > 100 µM | > 100 µM | > 100 µM | > 100 µM | > 100 µM | > 100 µM | > 100 µM | 
19 | Cc1ccc(F)cc1NC(=O)O/N=C(\Cl)C(C)C | > 56.8 µM | 4 µM | 3.74 µM | 15.5 µM | 3.66 µM | > 65.6 µM | 27.2 µM | 7.07 µM | 32.2 µM | 33.5 µM | 
20 | COC(=O)Cc1ccc2c(c1)Sc1ccc(CC(=O)OC)cc1N2C | > 100 µM | > 100 µM | 53.8 µM | > 100 µM | > 92.6 µM | > 89.3 µM | > 68.3 µM | > 100 µM | > 100 µM | > 100 µM | 
21 | C=CC[C@H]1[C@@H](O[Si](C)(C)C(C)(C)C)[C@H](n2ccc(=O)[nH]c2=O)O[C@@H]1CO[Si](C)(C)C(C)(C)C | 6.76 µM | 6.03 µM | 3.4 µM | 4.83 µM | 3.63 µM | 12.2 µM | 4.95 µM | 2.72 µM | 4.36 µM | 6.64 µM | 
22 | NCCC(N)C(=O)O (stereo unspecified) | > 100 µM | > 100 µM | > 100 µM | > 100 µM | > 100 µM | > 100 µM | > 100 µM | > 100 µM | > 100 µM | > 100 µM | 
23 | CC(=O)Oc1ccc(/C=C/C(=O)O[C@@H](C)[C@H](C)OC(=O)/C=C/c2ccc(OC(C)=O)c(OC(C)=O)c2)cc1OC(C)=O | > 100 µM | 39.1 µM | > 100 µM | 79.7 µM | 33.1 µM | > 100 µM | > 100 µM | 58.2 µM | > 100 µM | > 100 µM | 
24 | CC(C)(CN)CN | > 100 µM | > 100 µM | > 100 µM | > 100 µM | > 100 µM | > 100 µM | > 100 µM | > 100 µM | > 100 µM | > 100 µM | 
25 | C=CCC(C)C12CCNC(Cc3ccc(O)cc31)C2C (stereo unspecified) | > 100 µM | > 100 µM | > 100 µM | > 100 µM | > 100 µM | > 100 µM | > 100 µM | > 100 µM | > 100 µM | > 100 µM | 
26 | COc1ccc(CCn2cnc3ccccc32)cc1 | > 100 µM | > 100 µM | > 100 µM | > 100 µM | > 100 µM | > 100 µM | > 100 µM | > 100 µM | > 100 µM | > 100 µM | 
27 | N#CC1=C2Sc3ccccc3N2[C@H](c2ccccc2)[C@H]2COC(=O)[C@@H]12 | > 100 µM | 87.2 µM | > 100 µM | > 100 µM | > 100 µM | > 100 µM | > 100 µM | > 100 µM | > 100 µM | > 100 µM | 
28 | Cc1ccc(C)n2c1nc1ccc3ccccc3c12 | > 100 µM | > 100 µM | > 100 µM | > 100 µM | > 100 µM | > 100 µM | > 100 µM | > 100 µM | > 100 µM | > 100 µM | 
29 | Cn1c(=O)c2c(nc(NCCCCl)n2CC(=O)O)n(C)c1=O | > 100 µM | > 100 µM | > 100 µM | > 100 µM | > 100 µM | > 100 µM | > 100 µM | > 100 µM | > 100 µM | > 100 µM | 
30 | OC(C1CCC=NN1C(O)(C(F)(F)F)C(F)(F)F)(C(F)(F)F)C(F)(F)F (stereo unspecified) | > 10 µM | > 10 µM | > 10 µM | > 10 µM | > 10 µM | > 10 µM | > 10 µM | > 10 µM | > 10 µM | > 10 µM | 
31 | COc1ccc2c(c1)OC(c1cccnc1)C(c1ccccc1)C2=O (stereo unspecified) | > 100 µM | > 100 µM | > 100 µM | > 100 µM | > 100 µM | > 100 µM | > 100 µM | > 100 µM | > 100 µM | > 100 µM | 
